In patent US20190358264A1, “METHODS OF TREATING DISEASES ASSOCIATED WITH ILC2 CELLS” (Limm Therapeutics, SA, priority 2016, published 2019):

Test system: ILC2s
Assay: In vivo administration of NmU23, ILC2- and T cell-derived type 2 cytokines
Parameters: species or system mouse
Conditions: single dose NmU23 20 μg intraperitoneal, analyzed after 8 hours, vs PBS
Experimental: For in vitro experiments, purified lung and small intestine lamina propria ILC2s were FBS starved for 2 hours prior to stimulation and cultured in complete RPMI (supplemented with 10% foetal bovine serum (FBS), 1% hepes, sodium pyruvate, glutamine, streptomycin and penicillin) at 37° C. For mRNA analysis, ILC2s were stimulated overnight with recombinant mouse Neuromedin U 23 peptide (NmU23, 100 ng/mL; Phoenix pharmaceuticals). Both NmU23-stimulated and control ILC2s were cultured in the presence of IL-2 and IL-7 (10 ng/mL; Peprotech). ILC2s were lysed using RLT buffer (Qiagen). For cytokine protein analysis, ILC2s were incubated exclusively with brefeldin A (eBioscience) for 12 hours prior to intracellular staining. For in vivo experiments, B6 mice were injected intraperitoneal with NmU23 peptide (2 g/day) during Nippostrongylus brasiliensis infection or with a single dose of NmU23 (20 μg) and analyzed after 8 hours. Control mice were treated with PBS alone.
Intracellular staining was performed using IC fixation/permeabilization kit (eBioscience). Flow cytometry analysis and cell sorting were performed using BD LSRFORTESSA and BD FACSAria flow cytometers (BD Biosciences). Data analysis was done using FlowJo software (Tristar). Sorted populations were >95% pure. […]

Substance: recombinant mouse Neuromedin U 23 peptide (FKAEYQSPSVGQSKGYFLFRPRN; listed as Mus musculus) [NmU23, NMUR1 agonist neuropeptide, Phoenix pharmaceuticals]
- T helper cell-derived type 2 cytokines after in vivo administration: unperturbed
- type 2 cytokine production from ILC2s after in vivo administration: immediate and selective type 2 cytokine production
